This assay concerns chronic constriction nerve injury, peripheral mononeuropathy. Briefly: Chronic constriction nerve injury model of neuropathic pain (Von Frey filaments, Hargreaves Plantar Device). As to conditions: rats. It is filed as in vivo. An excerpt:
A peripheral mononeuropathy was induced in the right hind limb of rats following a chronic constriction nerve injury, and the development of mechanical allodynia and thermal hyperalgesia was monitored using established behavioural tests (Von Frey filaments and the Hargreaves Plantar Device, respectively).

Molecules are shown by their SMILES.

With `Cc1ccc(Sc2ccccc2C2CCNCC2)cc1` [Compound I, 4-[2-(4-methylphenylsulfanyl)phenyl]piperidine], the “paw withdrawal threshold, Von Frey filaments (mechanical allodynia)” value (subcutaneous 1.9, 4.8 and 7.9 mg/kg in 10% hydroxypropyl-betacyclodextrin, right hind paw) is reported as “did not increase the paw withdrawal threshold”. Moreover, the “paw withdrawal latency, thermal hyperalgesia (Hargreaves Plantar Device)” value (subcutaneous 4.8 and 7.9 mg/kg) was “significant increases in paw withdrawal latency”.
